Common to all, as to test: inhibition of tumour cell growth, NCI panel, 48 h
The test system of experiment [1] is UACC-62 melanoma.
The test system of experiment [2] is SF-295 CNS.
Experiment [3] deals with SK-MEL-5 melanoma.
For experiment [4], the system named is UACC-257 melanoma.
Experiment [5] has as its system A549 NSCLC.
The test system of experiment [6] is HL-60(TB) leukemia.
Experiment [7] concerns SN12C renal.
For experiment [8], the system named is K-562 leukemia.

Among the data in PubChem BioAssay (NCI) are GI50 and TGI values, retold here.

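Protocol summary: plate cells (96-well), add compound at 5 concentrations, incubate 48 h, interpolate endpoints linearly. GI50: concentration for 50% inhibition of growth. The concentration for full growth arrest is given as TGI.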 Bounds are passed on as bounds.

Regarding `COC(=O)c1cc2ccccc2c2c3c(ccc12)OCO3`, the GI50 was 40.1 µM in experiment [1]; 99.8 µM in experiment [2]; 45.2 µM in experiment [3]; 199 µM in experiment [4]; 117 µM in experiment [5]; 205 µM in experiment [7]. The GI50 in experiment [8] was 658 µM. Moreover, the TGI in experiment [1] is over 1000 µM; in experiment [2], 548 µM; in experiment [3], over 1000 µM; in experiment [4], over 1000 µM; in experiment [5] it was over 1000 µM; in experiment [6] it was over 1000 µM. The TGI in experiment [7] and in experiment [8] was over 1000 µM throughout.

For `Cc1ccc(-c2nc3nc(-c4ccccc4)nc(N4CCNCC4)c3o2)cc1`, the GI50 was 1.74 µM in experiment [1]; 0.589 µM in experiment [2]; 1.65 µM in experiment [3]; 1.98 µM in experiment [4]; 0.788 µM in experiment [5]; 0.215 µM in experiment [6]. In addition, the results for the GI50 in experiment [7] and in experiment [8] were 0.849 µM and 0.235 µM, respectively. Moreover, the TGI in experiment [1] is 3.27 µM; in experiment [2], 1.19 µM; in experiment [3], 3.04 µM; in experiment [4], 3.8 µM; in experiment [5], 2.5 µM; in experiment [6] it was 0.463 µM. Further, the TGI in experiment [7] is 2.31 µM; in experiment [8], 0.521 µM.

As for `O=S(=O)(c1cccc2c(I)cccc12)N1CCCNCC1`, the GI50 in experiment [1] was 19.9 µM; in experiment [2], 16.1 µM; in experiment [3], 8.71 µM; in experiment [4], 23.1 µM; in experiment [5] it was 37 µM; in experiment [6] it was 14.2 µM. For the same compound, the GI50 was 21.2 µM in experiment [7] and 10.9 µM in experiment [8]. Further, the TGI was 37.3 µM in experiment [1]; 34.1 µM in experiment [2]; 25.2 µM in experiment [3]; 43.2 µM in experiment [4]; over 100 µM in experiment [5]; 43.4 µM in experiment [6]. The figures for the TGI in experiment [7] and in experiment [8] were 38.4 µM and 30.4 µM, respectively.

Consider `CC(C)CCNCC(O)Cn1c2ccccc2c2ccccc21` (stereo not given), for which the GI50 in experiment [1] is 10.4 µM; in experiment [2], 19.4 µM; in experiment [3] it was 2.27 µM; in experiment [4], 5 µM; in experiment [5] it was 16.4 µM; in experiment [6], 14.3 µM. In addition, the GI50 in experiment [7] is 11.2 µM; in experiment [8], 3.69 µM. In addition, the TGI in experiment [1] amounted to 22.4 µM; in experiment [2] it was 39.4 µM; in experiment [3], 6.25 µM; in experiment [4], 17.2 µM; in experiment [5], 31.9 µM; in experiment [6], 31.6 µM. Further, the TGI in experiment [7] is 25.1 µM; in experiment [8], 13.2 µM.

With `CC[C@H](CO)Nc1nc(NCc2ccccc2)c2ncn(C(C)C)c2n1`, the GI50 in experiment [1] is 10.5 µM; in experiment [2], 21.8 µM; in experiment [5], 20.1 µM; in experiment [7], 27 µM; in experiment [8] it was 40.3 µM. For the same compound, the TGI in experiment [1] was 34 µM; in experiment [2], over 79.6 µM; in experiment [3], 35.5 µM; in experiment [4], 98.7 µM; in experiment [5], over 100 µM; in experiment [6] it was over 79.9 µM. Moreover, the TGI in experiment [7] and in experiment [8] was over 100 µM each time.

As for `Cc1ccc(C(=O)NC2CCC2)cc1-c1ccc(C(=O)NCC2CC2)cc1`, the GI50 was over 25 µM in experiment [1]; over 25 µM in experiment [2]; over 21.5 µM in experiment [3]; over 25 µM in experiment [4]; over 25 µM in experiment [5]; over 25 µM in experiment [6]. Besides, the GI50 in experiment [7] and in experiment [8] was over 25 µM in each case. Besides, the TGI in experiment [1], in experiment [2], in experiment [3], in experiment [4], in experiment [5] and in experiment [6] was over 25 µM in each case. Moreover, the TGI in experiment [7] and in experiment [8] was over 25 µM each time.

Turning to `Cc1[nH]c(=O)nc(Nc2ccc(Cl)cc2)c1C(=O)N1CCN(CCO)CC1`, the GI50 in experiment [1] is 94.8 µM; in experiment [2], 32.1 µM; in experiment [3] it was over 100 µM; in experiment [4], over 100 µM; in experiment [5], over 100 µM; in experiment [6], over 100 µM. Also, the GI50 in experiment [7] and in experiment [8] was over 100 µM each time. Moreover, the TGI in experiment [1], in experiment [2], in experiment [3], in experiment [4], in experiment [5] and in experiment [6] was over 100 µM in each case. Also, the TGI in experiment [7] and in experiment [8] was over 100 µM throughout.

For `O=C1c2ccc3c4c(ccc(c24)C(=O)N1CCCNCc1ccccc1Cl)C(=O)N(CCCNCc1ccccc1Cl)C3=O`, the GI50 was 0.671 µM in experiment [1]; 0.494 µM in experiment [2]; 0.399 µM in experiment [3]; 0.125 µM in experiment [4]; 0.23 µM in experiment [5]; 0.904 µM in experiment [6]. Besides, the GI50 in experiment [7] is 0.0995 µM; in experiment [8], 0.183 µM. In addition, the TGI worked out at 1.43 µM in experiment [1]; 1.22 µM in experiment [2]; 1.02 µM in experiment [3]; 0.334 µM in experiment [4]; 0.833 µM in experiment [5]; 2.11 µM in experiment [6]. Besides, the TGI amounted to 0.206 µM in experiment [7] and 1.12 µM in experiment [8].

Regarding `COC(=O)Nc1nc2ccc(Oc3cccc(NC(=O)Nc4cc(C(F)(F)F)ccc4F)c3)cc2[nH]1`, the GI50 in experiment [1] was 8.11 µM; in experiment [2] it was 14.6 µM; in experiment [3], 5.97 µM; in experiment [4] it was over 23.7 µM; in experiment [5], 16 µM; in experiment [6] it was 4.98 µM. Besides, the results for the GI50 in experiment [7] and in experiment [8] were 15.1 µM and 0.452 µM, respectively. Further, the TGI in experiment [1] is over 25 µM; in experiment [2], over 25 µM; in experiment [3], over 17.4 µM; in experiment [4], over 25 µM; in experiment [5], over 25 µM; in experiment [6], 18.5 µM. In addition, the TGI in experiment [7] and in experiment [8] was over 25 µM in each case.
